Structures are written as SMILES.

The target in one series is GSK3β (Homo sapiens, UniProt P49841). Briefly: Inhibitory activity against GSK3β (33P-ATP phosphorylation of prephosphorylated GS1 peptide, four protocols). It counts as biochemical. To be noted: protocol 3: 7.5 μM GS1 peptide, 10 μM ATP, 50 mM Hepes pH 7.2, one hour at room temperature. The procedure:
Inhibitory Activity of the Medicament of the Present Invention Against GSK3β Four different protocols can be used. In a first protocol: 7.5 μM of prephosphorylated GS1 peptide and 10 μM ATP (containing 300,000 cpm of ^33P-ATP) were incubated in 25 mM Tris-HCl, pH 7.5, 0.6 mM DTT, 6 mM MgCl2, 0.6 mM EGTA, 0.05 mg/ml BSA buffer for 1 hour at room temperature in the presence of GSK3beta (total reaction volume: 100 microliters). In a second protocol: 4.1 μM of prephosphorylated GS1 peptide and 42 μM ATP (containing 260,000 cpm ^33P-ATP) were incubated in 80 mM Mes-NaOH, pH 6.5, 1 mM Mg acetate, 0.5 mM EGTA, 5 mM 2-mercaptoethanol, 0.02% Tween 20, 10% glycerol buffer for 2 hours at room temperature in the presence of GSK3beta. In a third protocol: 7.5 μM of prephosphorylated GS1 peptide and 10 μM ATP (containing 300,000 cpm of ^33P-ATP) were incubated in 50 mM Hepes, pH 7.2, 1 mM DTT, 1 mM MgCl2, 1 mM EGTA, 0.01% Tween 20 buffer for one hour at room temperature in the presence of GSK3beta (total reaction volume: 100 microliters). […] Incorporated ^33P radioactivity was determined by liquid scintillation spectrometry. […]

GSK3β, sequence (P49841 whole entry): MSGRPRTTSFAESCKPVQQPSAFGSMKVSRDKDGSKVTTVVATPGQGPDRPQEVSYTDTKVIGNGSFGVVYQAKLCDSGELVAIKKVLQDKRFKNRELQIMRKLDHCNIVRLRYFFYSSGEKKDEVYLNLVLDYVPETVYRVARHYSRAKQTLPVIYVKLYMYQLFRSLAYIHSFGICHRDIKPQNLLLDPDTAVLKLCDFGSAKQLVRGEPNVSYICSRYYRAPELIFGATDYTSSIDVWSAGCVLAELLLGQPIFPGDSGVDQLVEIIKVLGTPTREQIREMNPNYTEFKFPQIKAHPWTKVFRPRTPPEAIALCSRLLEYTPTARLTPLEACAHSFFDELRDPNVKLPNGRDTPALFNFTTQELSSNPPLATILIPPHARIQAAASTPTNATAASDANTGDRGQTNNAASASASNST

Take `O=c1nc(-c2ccncc2)nc(NCCc2ccccc2)[nH]1` [compound 5, 6-(2-Phenylethyl)amino-4-pyridin-4-yl-1H-[1,3,5]triazin-2-one]: the melting point lay within 235 to 237 °C. The compound further had an IC50 on GSK3β of 50 nM.
On the same counts, the results for `Cn1c(NCC(O)c2ccccc2)nc(-c2ccncc2)nc1=O` (racemic) [Compound No. 1, (+/−)-6-(2-Hydroxy-2-phenyl-ethylamino)-1-methyl-4-pyridin-4-yl-1H-[1,3,5]triazin-2-one] are 242 to 244 °C and 372 nM.

Values taken from patent US8592580B2, “Substituted triazinone derivatives” (Sanofi, priority 2008, dated 2013).
